What was measured:
Assay in all cases: Minimum inhibitory concentration (broth microdilution) and FIC index
[1] = system: MSSA (Methicillin-susceptible Staphylococcus aureus); type: cell-based; conditions: Staphylococcus aureus, MSSA, read-out: Minimum inhibitory concentration
Method: (§1) A serial of twofold dilution of the tested antibiotics (oxacillin, erythromycin, ampicillin, kanamycin, levofoxacin, vancomycin and doxycycline) was perform by Broth microdilution method to a final concentration of 2-512 μg/mL. The bacterial overnight culture was collected and re-suspended in the Muller-Hilton (M-H) broth. An aliquot of cell suspension (OD600=0.1) was prepared. The bacterial suspensions were plated in 96-well plate and incubated with test antibiotics at 37° C. in a 5% CO2 incubator (Table 1 to Table 4).
(§2) The […], […] and antagonism between two drugs was evaluated by the following formula:
(§3) [formula] The criteria of fractional inhibitory concentration index: […]

MRSA 18271 = type: cell-based, Staphylococcus aureus; conditions: Staphylococcus aureus, MRSA, read-out: Minimum inhibitory concentration
Method: as §1, §2, §3

MRSA 18631 = type: cell-based, Staphylococcus aureus; conditions: Staphylococcus aureus, MRSA, read-out: Minimum inhibitory concentration
Method: as §1, §2, §3

MRSA 19615 = type: cell-based, Staphylococcus aureus; conditions: Staphylococcus aureus, MRSA, read-out: Minimum inhibitory concentration
Method: as §1, §2, §3

## O=C(OC1O[C@@H]2COC(=O)c3cc(O)c(O)c(O)c3-c3c(cc(O)c(O)c3O)C(=O)O[C@H]2[C@H](OC(=O)c2cc(O)c(O)c(O)c2)[C@H]1OC(=O)c1cc(O)c(O)c(O)c1)c1cc(O)c(O)c(O)c1 (stereo partly shown) [Tellimagrandin II]
[1]
  MIC: 64 µg/mL
MRSA 18271
  MIC: 128 µg/mL
MRSA 18631
  MIC: 128 µg/mL
MRSA 19615
  MIC: 128 µg/mL
